Results published in patent publication EP0174162A2, “Pharmaceutically active dipeptide derivatives” (THE WELLCOME FOUNDATION LIMITED, priority 1984, dated 1986).

Legend:
[1] = test system: salt depleted conscious beagle dogs; experiment: Antihypertensive activity in salt depleted conscious beagle dogs; type: in vivo; details: intravenous administration, doses in the range 1-3 mgkg^-1
[2] = test system: isoprenaline induced tachycardia; experiment: Effect on heart rate: isoprenaline induced tachycardia in pithed rats; type: in vivo; details: doses 10-100 µgkg^-1min^-1 displaced isoprenaline dose response curves rightwards
Protocol: Doses 10-100 µgkg^-1min^-1 effectively displaced in a rightwards fashion, isoprenaline dose response curves.

isolated enzyme = isolated enzyme (Homo sapiens, UniProt P12821); experiment: ACE inhibition on isolated enzyme; type: biochemical; details: read-out: apparent IC50 on isolated enzyme
ACE = molecular target: T1, ACE (Rattus norvegicus, UniProt P47820); experiment: ACE inhibition in vivo: angiotensin I induced pressor responses in pithed rats; details: doses 1-100 µgkg^-1min displaced angiotensin I dose response curves rightwards
T1 construct: in pithed rats; from tissue; host or cells: whole animal (pithed rat)
T1 sequence (P47820 36-1313): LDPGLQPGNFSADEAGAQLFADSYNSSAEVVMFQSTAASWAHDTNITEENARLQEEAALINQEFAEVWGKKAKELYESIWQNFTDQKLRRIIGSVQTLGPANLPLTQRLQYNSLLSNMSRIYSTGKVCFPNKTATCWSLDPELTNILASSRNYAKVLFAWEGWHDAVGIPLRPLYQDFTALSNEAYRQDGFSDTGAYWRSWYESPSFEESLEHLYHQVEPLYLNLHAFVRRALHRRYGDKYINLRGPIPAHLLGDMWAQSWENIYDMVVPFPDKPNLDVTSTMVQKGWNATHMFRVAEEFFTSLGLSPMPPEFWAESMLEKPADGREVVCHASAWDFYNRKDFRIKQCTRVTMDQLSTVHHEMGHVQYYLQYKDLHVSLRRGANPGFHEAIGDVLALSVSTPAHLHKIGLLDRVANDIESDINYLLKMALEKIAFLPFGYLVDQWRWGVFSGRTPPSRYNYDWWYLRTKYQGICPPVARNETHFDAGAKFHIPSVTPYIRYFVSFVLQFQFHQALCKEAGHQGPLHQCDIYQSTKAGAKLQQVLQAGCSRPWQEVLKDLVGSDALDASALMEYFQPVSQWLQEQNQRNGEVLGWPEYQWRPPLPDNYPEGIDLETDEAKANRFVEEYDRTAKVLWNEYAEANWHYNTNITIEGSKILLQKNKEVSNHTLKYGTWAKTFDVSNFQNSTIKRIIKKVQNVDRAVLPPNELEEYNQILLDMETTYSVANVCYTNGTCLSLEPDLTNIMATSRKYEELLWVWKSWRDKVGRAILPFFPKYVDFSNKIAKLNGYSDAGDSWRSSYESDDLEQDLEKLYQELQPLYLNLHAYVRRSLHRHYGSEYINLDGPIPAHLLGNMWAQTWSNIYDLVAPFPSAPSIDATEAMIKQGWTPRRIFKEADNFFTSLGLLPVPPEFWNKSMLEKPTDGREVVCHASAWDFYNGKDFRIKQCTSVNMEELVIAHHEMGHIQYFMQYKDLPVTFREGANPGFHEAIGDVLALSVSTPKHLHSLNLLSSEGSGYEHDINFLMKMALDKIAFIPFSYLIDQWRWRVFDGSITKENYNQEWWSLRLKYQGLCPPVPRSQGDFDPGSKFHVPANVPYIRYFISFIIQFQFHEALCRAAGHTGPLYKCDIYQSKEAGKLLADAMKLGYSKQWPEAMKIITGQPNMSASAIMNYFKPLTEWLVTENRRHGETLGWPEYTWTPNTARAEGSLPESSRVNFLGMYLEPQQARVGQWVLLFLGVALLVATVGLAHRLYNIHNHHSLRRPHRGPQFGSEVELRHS
Protocol: Doses 1-100 µgkg^-1min effectively displaced in a rightwards fashion, angiotensin I dose response curves.

[3] = test system: uninephrectomised, contralateral renal stenotic conscious beagle dogs; experiment: Antihypertensive activity in uninephrectomised, contralateral renal stenotic conscious beagle dogs; type: in vivo; details: doses in the range 1-3 mgkg^-1 intravenously

Chain of isolated enzyme (P12821 30-1306): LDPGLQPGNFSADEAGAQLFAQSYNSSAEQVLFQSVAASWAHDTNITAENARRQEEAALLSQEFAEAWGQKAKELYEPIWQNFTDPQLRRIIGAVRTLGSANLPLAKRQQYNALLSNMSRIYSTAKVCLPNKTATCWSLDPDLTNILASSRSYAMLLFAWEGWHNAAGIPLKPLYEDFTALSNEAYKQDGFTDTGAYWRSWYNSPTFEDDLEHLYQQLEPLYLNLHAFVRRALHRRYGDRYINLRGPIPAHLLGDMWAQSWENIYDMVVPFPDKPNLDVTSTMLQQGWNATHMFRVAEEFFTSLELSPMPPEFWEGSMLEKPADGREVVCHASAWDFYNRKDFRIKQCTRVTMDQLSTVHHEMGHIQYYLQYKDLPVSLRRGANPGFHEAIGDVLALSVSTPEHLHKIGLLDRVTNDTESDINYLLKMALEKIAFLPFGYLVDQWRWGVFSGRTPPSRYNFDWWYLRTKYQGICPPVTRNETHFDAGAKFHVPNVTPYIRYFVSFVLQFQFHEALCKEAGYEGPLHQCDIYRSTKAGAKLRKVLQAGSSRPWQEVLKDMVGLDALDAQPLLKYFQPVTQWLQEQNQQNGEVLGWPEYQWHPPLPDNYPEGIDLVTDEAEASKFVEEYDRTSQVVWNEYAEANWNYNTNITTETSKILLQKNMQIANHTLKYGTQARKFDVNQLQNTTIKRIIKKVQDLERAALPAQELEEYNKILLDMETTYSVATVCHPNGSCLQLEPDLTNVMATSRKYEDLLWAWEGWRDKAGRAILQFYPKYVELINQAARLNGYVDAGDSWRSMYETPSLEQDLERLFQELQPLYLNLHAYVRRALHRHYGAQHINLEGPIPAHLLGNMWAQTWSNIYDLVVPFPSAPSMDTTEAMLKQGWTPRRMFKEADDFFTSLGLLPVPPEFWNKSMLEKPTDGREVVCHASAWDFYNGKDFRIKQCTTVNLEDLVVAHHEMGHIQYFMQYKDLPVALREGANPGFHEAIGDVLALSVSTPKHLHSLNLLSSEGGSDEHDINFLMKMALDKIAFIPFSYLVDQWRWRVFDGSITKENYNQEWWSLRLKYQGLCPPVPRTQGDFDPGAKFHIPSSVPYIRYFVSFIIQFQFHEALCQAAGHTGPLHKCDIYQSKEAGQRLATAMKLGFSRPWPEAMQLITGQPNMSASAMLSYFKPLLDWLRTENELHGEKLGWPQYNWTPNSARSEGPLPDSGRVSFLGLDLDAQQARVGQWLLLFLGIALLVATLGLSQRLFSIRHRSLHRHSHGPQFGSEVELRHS

Question: Which results are given for `CC(C)NCC(O)COc1cccc2[nH]c(C(=O)NCCCC[C@H](NC(C)C(=O)N3CCC[C@H]3C(=O)O)C(=O)O)cc12` (some centres unmarked) [Example 1]?
Answer: blood pressure [1]: reduce blood pressure; inhibition of isoprenaline induced tachycardia [2]: inhibit in a dose dependent fashion; IC50 (isolated enzyme): 11 nM; inhibition of angiotensin I induced pressor responses (ACE): inhibit in a dose dependent fashion; hypotensive activity [3]: marked hypotensive activity
